Results published in article PMC9369442, “Synthetic Peucedanocoumarin IV Prevents α-Synuclein Neurotoxicity in an Animal Model of Parkinson’s Disease” (International Journal of Molecular Sciences, 2022).
Where two headings read alike, the source gives them in different places.

Legend:
[1] = Rat pharmacokinetics after intravenous and oral administration; type: in vivo; settings: 10 mg/kg, rats
Description: Figure 3 Pharmacokinetic analysis and tissue distribution of PCiv. (A) Pharmacokinetic analysis of blood PCiv levels at each indicated time point following intravenous or oral administration of PCiv (10 mg/kg) determined by ultra-performance liquid chromatography (n = 4 rats for oral and 5 rats for intravenous administration). (B) Quantification of PCiv levels in each indicated tissue (ng/g tissue weight) determined by ultra-performance liquid chromatography (n = 3 rats, tissues collected 15 min after intravenous PCiv administration (10 mg/kg). PCiv was dissolved in a vehicle (DMSO:PEG400:saline ratio of 5:70:25) for solubilization. The quantified data are expressed as means ± standard deviations.
In vivo rat pharmacokinetic studies were performed for intravenous and oral administration of PCiv as previously reported. Sprague-Dawley rats (8 weeks old, 260–280 g) were purchased from Orient Bio Inc. (Seongnam, Korea). Rats were maintained with free access to food and water under a 12:12 h light/dark cycle for 1 week. For pharmacokinetic studies, under anesthetic conditions (20 mg/kg tiletamine/zolazepam [Zoletil; Vibrac Laboratories, Carros, France] administered intramuscularly), the femoral vein and artery were surgically cannulated using polyethylene tubing (PE50; Clay Adams, Parsippany, NJ, USA) in fasted rats. Then, PCiv was administered intravenously and orally at a dose of 10 mg/kg (n = 4–5). The drug was dissolved in a vehicle (DMSO:PEG400:saline at a ratio of 5:70:25). Blood samples (approximately 100 μL) were collected at predetermined time points (0, 1, 5 (intravenous administration only), 15, 30, 60, 120, 180, 240, 360, and 480 min) after drug administration. To prevent blood clots and fluid loss, the cannula to the femoral artery was flushed with 20 IU/mL heparinized saline, and the same volume of saline was pushed to the cannula for the femoral vein. The plasma fraction was immediately obtained after centrifugation at 14,000 rpm for 15 min at 4 °C and then stored at −20 °C prior to analysis using the ultra-high-performance liquid chromatography (UHPLC)-diode array detector (DAD) method. Similarly, a tissue distribution study was performed 15 min after the intravenous bolus injection (10 mg/kg), as previously described. Four major tissues, including tissues from the brain, heart, kidneys, and liver, were collected. Based on the wet weights of the tissue samples, a two-fold volume of PBS was added and homogenized. The tissue homogenates were stored at −20 °C before UHPLC-DAD analysis. The UHPLC-DAD system consisted of an Agilent Technologies 1290 Infinity II equipped with a DAD (G7117A), an autosampler (G71678B), a binary pump (G7104A), and a multicolumn thermostat (G7116B). The PCiv level was determined using a CapcellpakTM C18 5 μm column (250 × 1.5 mm, Shiseido Fine Chemical Co., Tokyo, Japan), as previously described. The mobile phase was composed of 0.1% phosphoric acid and acetonitrile and eluted in the gradient mode at a flow rate of 0.2 mL/min. A DAD detector was applied at 321 nm, with an injection volume of 10 μL. The calibration range was 20–10,000 ng/mL with good linearity (R = 0.99783 with 1/× weighting). The tissue concentration levels were calculated as the PCiv amount (ng) per gram of organ weight.

recombinant α-synuclein = molecular target: T1, recombinant α-synuclein (Homo sapiens, UniProt P37840); experiment: In vitro recombinant α-synuclein aggregation, Western blot; type: biochemical; settings: 100 μM, 37 °C, 3 or 5 days
T1 construct: made in house; host or cells: Escherichia coli BL21
Description: Figure 2 PCiv prevents α-synuclein aggregation in vitro and in cultured neurons with PFF treatment. (A) Representative Western blots showing the degree of recombinant α-synuclein (αSyn) aggregation in a test tube in the presence or absence of PCiv (100 μM) at the indicated incubation duration (phosphate-buffered saline [PBS], 37 °C for 3 or 5 days). Aggregation of α-synuclein was determined using α-synuclein antibody. (B) Quantification of the relative amount of α-synuclein aggregate in high molecular weight sizes in panel A (n = 3 per group). […] (D) Quantification of pS129-αSyn immunofluorescence signal intensities in MAP2-positive cortical neurons in each experimental group (n = 15 cells from three separate experiments). (E) Cell viability assessment in the indicated experimental groups was monitored by CCK-8 assay (n = 3 per group). The data are expressed as means ± SEMs. * p < 0.05, ** p < 0.01, *** p < 0.001, and **** p < 0.0001, ANOVA test followed by Tukey’s post hoc analysis. […]
(A) Representative Western blots showing the degree of recombinant α-synuclein (αSyn) aggregation in a test tube in the presence or absence of t-Khellatone, PCiii, and PCiv (100 μM) at 0 and 5 days of incubation (phosphate-buffered saline [PBS], 37 °C for 5 days). Aggregation of α-synuclein was determined using α- synuclein antibody. […]

[2] = set-up: method as in PMID 31689937; settings: intraperitoneal administration in mice; cited from earlier work

Row | SMILES | half-life ([1]; Sprague-Dawley, rat, plasma, iv, intravenous, read-out: mean half-life) [h] | half-life ([1]; Sprague-Dawley, rat, plasma, po, oral administration, read-out: half-life) [h] | bioavailability ([1]; Sprague-Dawley, rat, plasma, po, oral, read-out: absolute bioavailability) [%] | Vd ([1]; Sprague-Dawley, rat, plasma, intravenous, read-out: mean steady-state volume of distribution) [L/kg] | clearance ([1]; Sprague-Dawley, rat, plasma, intravenous, read-out: mean systemic total clearance) [mL/min/kg] | absolute bioavailability ([1]; oral) [%] | maximum concentration ([1]; oral) | aggregation of recombinant α-synuclein into high molecular weight species (recombinant α-synuclein) | brain distribution [2]
1 | C/C=C(\C)C(=O)O[C@H]1[C@H](OC(C)=O)c2c(ccc3ccc(=O)oc23)OC1(C)C (relative stereo) [PCiv, trans-4′-acetyl-3′-tigloylkhellactone] | 1.43 | ~1.62 | 9.96 | 6.62 | 136 | ~10 | low | robustly blocked | 
2 | C/C=C(\C)C(=O)O[C@@H]1c2c(ccc3ccc(=O)oc23)OC(C)(C)[C@H]1OC(C)=O (relative stereo) [PCiii, peucedanocoumarin III] |  |  |  |  |  |  |  |  | demonstrated brain distribution
